# Experimental data published in ChEMBL document CHEMBL6153174, “Design and Synthesis of Novel Deazapurine DNMT 1 Inhibitors with In Vivo Efficacy in DLBCL” (J Med Chem, 2025).
# Activity calls are given as the source filed them. No cut-off for these calls is given here.
# Legend:
# DOHH-2 [1] = experiment: Induction of apoptosis in human DOHH-2 cells assessed as late apoptotic cells measured after 48 hrs by annexin-V/FITC and PI staining based flow cytometry analysis; type: functional, cell-based; conditions: dose 0.25-5 µM
# [2] = Subacute toxicity in Balb/C mouse assessed as effect on lung at 30 mg/kg, iv administered three times in a week for 2 weeks; type: organism-based; conditions: in vivo, 336 h
# MDA-MB-231 = experiment: Antiproliferative activity against human MDA-MB-231 cells assessed as inhibition of cell viability measured after 72 hrs by MTT assay; type: functional, cell-based; conditions: MDA-MB-231, 72 h
# TMD8 [3] = experiment: Induction of apoptosis in human TMD8 cells assessed as early apoptotic cells at 1 uM measured after 48 hrs by annexin-V/FITC and PI staining based flow cytometry analysis (reference value: 9.15%); type: functional
# DOHH-2 [4] = experiment: Induction of cell cycle arrest in human DOHH-2 cells assessed as accumulation of cells at G0-G1 phase at 1 uM incubated for 24 hrs by PI staining based flow cytometry analysis (reference value: 27.1%); type: functional
# DOHH-2 [5] = experiment: Induction of cell cycle arrest in human DOHH-2 cells assessed as accumulation of cells at S phase at 1.0 uM incubated for 24 hrs by PI staining based flow cytometry analysis (reference value: 40.7%); type: functional
# [6] = Subacute toxicity in Balb/C mouse assessed as effect on heart at 30 mg/kg, iv administered three times in a week for 2 weeks; type: organism-based; conditions: in vivo, 336 h
# [7] = Oral bioavailability in Sprague-Dawley rat at 10 mg/kg measured upto 24 hrs by LC/MS/MS analysis; type: ADME, organism-based; conditions: Sprague-Dawley, in vivo
# TMD8 [8] = experiment: Induction of apoptosis in human TMD8 cells assessed as late apoptotic cells at 10 uM measured after 48 hrs by annexin-V/FITC and PI staining based flow cytometry analysis (reference value: 5.13%); type: functional
# [9] = target: T1, DNA (cytosine-5)-methyltransferase 1 (Homo sapiens, UniProt P26358); experiment: Inhibition of DNMT1 (unknown origin) preincubated for 15 mins followed by substrate and [3H-SAM] addition and measured after 60 mins by microbeta analysis
# DOHH-2 [10] = experiment: Induction of apoptosis in human DOHH-2 cells assessed as early apoptotic cells at 1 uM measured after 48 hrs by annexin-V/FITC and PI staining based flow cytometry analysis (reference value: 5.69%); type: functional
# HepG2 = experiment: Antiproliferative activity against human HepG2 cells assessed as inhibition of cell viability measured after 72 hrs by MTT assay; type: functional, cell-based; conditions: HepG2, 72 h
# TMD8 [11] = experiment: Induction of apoptosis in human TMD8 cells assessed as early apoptotic cells at 10 uM measured after 48 hrs by annexin-V/FITC and PI staining based flow cytometry analysis (reference value: 9.15%); type: functional
# [12] = Antitumor activity against human TMD8 cells harbouring TP53 mutant xenografted in mouse model assessed as tumor inhibition rate at 10 mg/kg, iv administered three times a week in presence of chidamide relative to control; type: functional; parameters: scale not given: the % may be the effect or the level left
# DOHH-2 [13] = experiment: Induction of cell cycle arrest in human DOHH-2 cells assessed as accumulation of cells at S phase at 0.25 uM incubated for 24 hrs by PI staining based flow cytometry analysis (reference value: 40.7%); type: functional
# [14] = target: T1, DNA (cytosine-5)-methyltransferase 1; experiment: Inhibition of DNMT1 in human DOHH-2 cells assessed as inhibition of H3K9 methylation level at 1 uM incubated for 48 hrs by Western blot analysis; type: cell-based
# THP-1 = experiment: Antiproliferative activity against human THP-1 cells assessed as inhibition of cell viability measured after 72 hrs by MTT assay; type: functional, cell-based; conditions: THP-1, 72 h
# DOHH-2 [15] = experiment: Induction of apoptosis in human DOHH-2 cells assessed as early apoptotic cells at 5 uM measured after 48 hrs by annexin-V/FITC and PI staining based flow cytometry analysis (reference value: 5.69%); type: functional
# [16] = target: T2, Histone-lysine N-methyltransferase EHMT2 (Homo sapiens, UniProt Q96KQ7); experiment: Inhibition of G9a (unknown origin) preincubated for 15 mins followed by substrate and [3H-SAM] addition and measured after 60 mins by microbeta analysis
# T2 sequence (Q96KQ7 whole entry): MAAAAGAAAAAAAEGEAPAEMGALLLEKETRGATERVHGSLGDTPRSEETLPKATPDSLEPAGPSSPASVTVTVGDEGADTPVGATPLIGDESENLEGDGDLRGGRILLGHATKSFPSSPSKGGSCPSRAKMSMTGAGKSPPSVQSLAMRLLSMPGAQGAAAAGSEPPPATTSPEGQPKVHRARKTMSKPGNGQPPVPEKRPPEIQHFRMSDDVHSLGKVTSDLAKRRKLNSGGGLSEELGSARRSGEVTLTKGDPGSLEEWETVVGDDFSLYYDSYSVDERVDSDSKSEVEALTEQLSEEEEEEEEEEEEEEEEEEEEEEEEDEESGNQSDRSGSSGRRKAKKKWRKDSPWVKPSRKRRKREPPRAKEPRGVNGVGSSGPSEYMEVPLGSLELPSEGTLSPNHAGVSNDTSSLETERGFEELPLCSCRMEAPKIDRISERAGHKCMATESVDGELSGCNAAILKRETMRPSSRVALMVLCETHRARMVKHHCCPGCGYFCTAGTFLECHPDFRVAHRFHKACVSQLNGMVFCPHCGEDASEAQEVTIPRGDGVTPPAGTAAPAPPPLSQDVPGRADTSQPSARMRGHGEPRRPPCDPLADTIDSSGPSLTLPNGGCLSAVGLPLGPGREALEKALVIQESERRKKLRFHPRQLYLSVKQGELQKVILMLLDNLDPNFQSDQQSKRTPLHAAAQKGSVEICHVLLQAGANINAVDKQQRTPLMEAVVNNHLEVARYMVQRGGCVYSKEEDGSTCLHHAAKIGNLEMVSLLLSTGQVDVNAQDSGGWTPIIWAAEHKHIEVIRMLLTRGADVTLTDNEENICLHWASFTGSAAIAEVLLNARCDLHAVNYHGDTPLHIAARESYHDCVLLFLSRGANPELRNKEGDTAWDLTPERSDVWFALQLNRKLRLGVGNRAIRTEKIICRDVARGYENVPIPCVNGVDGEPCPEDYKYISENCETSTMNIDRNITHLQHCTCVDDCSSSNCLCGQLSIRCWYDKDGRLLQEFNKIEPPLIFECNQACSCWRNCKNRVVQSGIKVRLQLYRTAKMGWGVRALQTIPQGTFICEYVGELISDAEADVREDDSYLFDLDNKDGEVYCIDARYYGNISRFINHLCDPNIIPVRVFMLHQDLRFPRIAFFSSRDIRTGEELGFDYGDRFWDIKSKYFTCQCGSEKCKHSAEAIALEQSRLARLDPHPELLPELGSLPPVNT
# DOHH-2 [17] = experiment: Induction of cell cycle arrest in human DOHH-2 cells assessed as accumulation of cells at G2/M phase incubated for 24 hrs by PI staining based flow cytometry analysis; type: functional; conditions: dose 0.25-1 µM
# TMD8 [18] = experiment: Induction of cell cycle arrest in human TMD8 cells assessed as accumulation of cells at S phase at 1.0 uM incubated for 24 hrs by PI staining based flow cytometry analysis (reference value: 39.0%); type: functional
# [19] = Subacute toxicity in Balb/C mouse assessed as effect on kidney at 30 mg/kg, iv administered three times in a week for 2 weeks; type: organism-based; conditions: in vivo, 336 h
# T1 sequence (P26358 whole entry): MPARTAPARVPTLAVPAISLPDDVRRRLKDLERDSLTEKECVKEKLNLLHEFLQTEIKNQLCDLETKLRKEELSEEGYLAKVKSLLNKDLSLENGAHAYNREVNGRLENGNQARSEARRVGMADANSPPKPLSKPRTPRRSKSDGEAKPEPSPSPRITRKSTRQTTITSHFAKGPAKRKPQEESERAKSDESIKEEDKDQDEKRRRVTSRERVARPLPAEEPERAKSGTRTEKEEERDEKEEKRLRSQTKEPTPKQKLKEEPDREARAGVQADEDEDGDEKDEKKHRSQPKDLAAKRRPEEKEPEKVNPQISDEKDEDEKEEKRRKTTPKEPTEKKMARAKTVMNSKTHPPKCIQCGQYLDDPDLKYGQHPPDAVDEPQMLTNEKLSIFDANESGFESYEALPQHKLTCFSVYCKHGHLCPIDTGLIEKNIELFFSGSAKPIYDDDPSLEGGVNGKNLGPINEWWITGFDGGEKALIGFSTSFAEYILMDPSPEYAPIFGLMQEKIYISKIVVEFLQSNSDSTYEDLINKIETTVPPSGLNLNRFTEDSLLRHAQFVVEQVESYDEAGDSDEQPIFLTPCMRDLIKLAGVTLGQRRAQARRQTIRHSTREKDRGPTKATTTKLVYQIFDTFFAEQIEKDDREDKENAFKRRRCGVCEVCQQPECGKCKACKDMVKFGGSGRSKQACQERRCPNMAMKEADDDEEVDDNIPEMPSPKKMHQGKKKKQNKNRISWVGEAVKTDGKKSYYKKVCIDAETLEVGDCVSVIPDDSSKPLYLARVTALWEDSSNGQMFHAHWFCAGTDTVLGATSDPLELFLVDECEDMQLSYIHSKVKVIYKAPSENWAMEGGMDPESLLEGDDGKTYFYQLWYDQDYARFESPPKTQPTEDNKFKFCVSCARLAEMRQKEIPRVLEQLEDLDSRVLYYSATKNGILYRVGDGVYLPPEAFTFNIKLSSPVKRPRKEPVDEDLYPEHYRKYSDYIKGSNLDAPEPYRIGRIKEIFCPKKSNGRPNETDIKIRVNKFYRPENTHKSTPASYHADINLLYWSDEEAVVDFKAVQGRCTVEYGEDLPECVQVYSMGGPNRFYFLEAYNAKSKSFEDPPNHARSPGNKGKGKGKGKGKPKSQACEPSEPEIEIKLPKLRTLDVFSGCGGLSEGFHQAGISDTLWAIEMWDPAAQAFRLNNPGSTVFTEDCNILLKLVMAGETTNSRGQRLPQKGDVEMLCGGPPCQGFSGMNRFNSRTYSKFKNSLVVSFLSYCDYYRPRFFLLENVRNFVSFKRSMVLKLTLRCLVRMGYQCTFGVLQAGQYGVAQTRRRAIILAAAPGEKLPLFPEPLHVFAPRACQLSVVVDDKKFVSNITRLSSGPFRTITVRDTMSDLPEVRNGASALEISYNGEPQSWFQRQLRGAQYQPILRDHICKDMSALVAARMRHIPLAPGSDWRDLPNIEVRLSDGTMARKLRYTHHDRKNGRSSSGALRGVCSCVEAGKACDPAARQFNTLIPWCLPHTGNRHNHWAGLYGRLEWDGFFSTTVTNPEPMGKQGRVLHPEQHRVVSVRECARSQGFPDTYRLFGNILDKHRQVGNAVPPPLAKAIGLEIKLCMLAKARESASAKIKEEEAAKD
smiles,measurement,setting,value
CN1CCC(Nc2nc(-c3ccnc(F)c3)nc3c2ccn3CCCN2CCCC2)CC1,Activity,DOHH-2 [1],Dose-dependent-effect
same,Activity,[2],Non-toxic
same,IC50,MDA-MB-231,3910 nM
same,Activity,TMD8 [3],15.7%
same,Activity,DOHH-2 [4],42.2%
same,Activity,DOHH-2 [5],19.9%
same,Activity,[6],Non-toxic
same,bioavailability,[7],23.4%
same,Activity,TMD8 [8],12.9%
same,IC50,[9],2420 nM
same,Activity,DOHH-2 [10],24%
same,IC50,HepG2,2880 nM
same,Activity,TMD8 [11],47.5%
same,Activity,[12],83.2%
same,Activity,DOHH-2 [13],37.3%
same,inhibition,[14],Active
same,IC50,THP-1,2370 nM
same,Activity,DOHH-2 [15],44.7%
same,IC50,[16],> 20000 nM
same,Activity,DOHH-2 [17],Dose-dependent-effect
same,Activity,TMD8 [18],29.3%
same,Activity,[19],Non-toxic
